Laboratory results published in US11613536B2, “Heterocyclic compounds as immunomodulators” (Incyte Corporation, priority 2016, dated 2023).

Biological target: PD-1/PD-L1 protein/protein interaction (Homo sapiens (Human), UniProt Q9NZQ7)
Assay: PD-1/PD-L1 Homogeneous Time-Resolved Fluorescence (HTRF) Binding Assay
Settings: recombinant human PD-L1 (19-238) His-tag 10 nM, human PD-1 (25-167) Fc tag 3 nM, 25° C., PBS pH 7.4
Experimental: The assays were conducted in a standard black 384-well polystyrene plate with a final volume of 20 μL. Inhibitors were first serially diluted in DMSO and then added to the plate wells before the addition of other reaction components. The final concentration of DMSO in the assay was 1%. The assays were carried out at 25° C. in the PBS buffer (pH 7.4) with 0.05% Tween-20 and 0.1% BSA. Recombinant human PD-L1 protein (19-238) with a His-tag at the C-terminus was purchased from AcroBiosystems (PD1-H5229). Recombinant human PD-1 protein (25-167) with Fc tag at the C-terminus was also purchased from AcroBiosystems (PD1-H5257). PD-L1 and PD-1 proteins were diluted in the assay buffer and 10 μL was added to the plate well. Plates were centrifuged and proteins were preincubated with inhibitors for 40 minutes. The incubation was followed by the addition of 10 μL of HTRF detection buffer supplemented with Europium cryptate-labeled anti-human IgG (PerkinElmer-AD0212) specific for Fc and anti-His antibody conjugated to SureLight®-Allophycocyanin (APC, PerkinElmer-AD0059H). After centrifugation, the plate was incubated at 25° C. for 60 min. before reading on a PHERAstar FS plate reader (665 nm/620 nm ratio). Final concentrations in the assay were—3 nM PD1, 10 nM PD-L1, 1 nM europium anti-human IgG and 20 nM anti-His-Allophycocyanin. IC50 determination was performed by fitting the curve of percent control activity versus the log of the inhibitor concentration using the GraphPad Prism 5.0 software.

Sequence of PD-1/PD-L1 protein/protein interaction (Q9NZQ7 19-238): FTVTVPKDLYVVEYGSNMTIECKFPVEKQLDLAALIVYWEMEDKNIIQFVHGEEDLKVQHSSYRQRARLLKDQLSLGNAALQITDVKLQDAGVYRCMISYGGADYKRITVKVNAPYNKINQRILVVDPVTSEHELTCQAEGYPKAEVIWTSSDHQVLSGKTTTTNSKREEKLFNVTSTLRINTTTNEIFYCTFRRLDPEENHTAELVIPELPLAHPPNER

IC50 [nM]	SMILES
≤ 100	Cn1nc(C(=O)Nc2cccc(-c3cccc4c3cnn4C)c2C#N)cc1CNCCO [Example 13, N-[2-cyano-3-(1-methyl-1H-indazol-4-yl)phenyl]-5-{[(2-hydroxyethyl)amino]methyl}-1-methyl-1H-pyrazole-3-carboxamide]
≤ 100	Cc1c(NC(=O)c2cc(CN3CCCC[C@H]3C(=O)O)n(C)n2)cccc1-c1ccccc1 [Example 6, (2S)-1-[(1-methyl-3-{[(2-methylbiphenyl-3-yl)amino]carbonyl}-1H-pyrazol-5-yl)methyl]piperidine-2-carboxylic acid]
≤ 100	Cc1c(NC(=O)c2ncc(CNCCO)s2)cccc1-c1ccccc1 [Example 2, 5-{[(2-hydroxyethyl)amino]methyl}-N-(2-methylbiphenyl-3-yl)-1,3-thiazole-2-carboxamide]
≤ 100	Cc1c(NC(=O)c2nc(Cl)c(CNCCO)s2)cccc1-c1ccccc1 [Example 8, 4-chloro-5-{[(2-hydroxyethyl)amino]methyl}-N-(2-methylbiphenyl-3-yl)-1,3-thiazole-2-carboxamide]
100 to 500	Cc1c(NC(=O)c2ncc(CN3CCCC[C@H]3C(=O)O)n2C)cccc1-c1ccccc1 [Example 4, (2S)-1-[(1-methyl-2-{[(2-methylbiphenyl-3-yl)amino]carbonyl}-1H-imidazol-5-yl)methyl]piperidine-2-carboxylic acid]
100 to 500	Cn1c(CNCCO)cnc1C(=O)Nc1cccc(-c2cccc3c2cnn3C)c1C#N [Example 16, N-[2-cyano-3-(1-methyl-1H-indazol-4-yl)phenyl]-5-{[(2-hydroxyethyl)amino]methyl}-1-methyl-1H-imidazole-2-carboxamide]
≤ 100	Cc1c(NC(=O)c2ncc(CNCCO)n2C)cccc1-c1ccccc1 [Example 5, 5-{[(2-hydroxyethyl)amino]methyl}-1-methyl-N-(2-methylbiphenyl-3-yl)-1H-imidazole-2-carboxamide]
≤ 100	Cn1nc(C(=O)Nc2cccc(-c3ccccc3F)c2C#N)cc1CNCCO [Example 11, N-(2-cyano-2′-fluorobiphenyl-3-yl)-5-{[(2-hydroxyethyl)amino]methyl}-1-methyl-1H-pyrazole-3-carboxamide]
≤ 100	Cc1c(COc2cc(OCc3cncc(C#N)c3)c(CN3CCCC[C@H]3C(=O)O)cc2Cl)cccc1-c1cccc(NC(=O)c2ncc(CNCCO)s2)c1C [Example 17, (S)-1-(5-chloro-2-((5-cyanopyridin-3-yl)methoxy)-4-((3′-(5-(((2-hydroxyethyl)amino)methyl)thiazole-2-carboxamido)-2,2′-dimethyl-[1,1′-biphenyl]-3-yl)methoxy)benzyl)piperidine-2-carboxylic acid]
≤ 100	COc1cccc(-c2cccc(NC(=O)c3cc(CNCCO)n(C)n3)c2C#N)c1F [Example 12, N-(2-cyano-2′-fluoro-3′-methoxybiphenyl-3-yl)-5-{[(2-hydroxyethyl)amino]methyl}-1-methyl-1H-pyrazole-3-carboxamide]
100 to 500	Cc1c(NC(=O)c2ncc(CNCCO)o2)cccc1-c1ccccc1 [Example 3, 5-{[(2-hydroxyethyl)amino]methyl}-N-(2-methylbiphenyl-3-yl)-1,3-oxazole-2-carboxamide]
≤ 100	Cc1c(NC(=O)c2ncc(CN3CCCC[C@H]3C(=O)O)s2)cccc1-c1ccccc1 [Example 1, (2S)-1-[(2-{[(2-methylbiphenyl-3-yl)amino]carbonyl}-1,3-thiazol-5-yl)methyl]piperidine-2-carboxylic acid]
≤ 100	COc1cccc(-c2cccc(NC(=O)c3ncc(CNCCO)n3C)c2C#N)c1F [Example 15, N-(2-cyano-2′-fluoro-3′-methoxybiphenyl-3-yl)-5-{[(2-hydroxyethyl)amino]methyl}-1-methyl-1H-imidazole-2-carboxamide]
≤ 100	Cn1c(CNCCO)cnc1C(=O)Nc1cccc(-c2ccc3c(c2)OCCO3)c1C#N [Example 14, N-[2-cyano-3-(2,3-dihydro-1,4-benzodioxin-6-yl)phenyl]-5-{[1(2-hydroxyethyl)amino]methyl}-1-methyl-1H-imidazole-2-carboxamide]
≤ 100	Cc1c(NC(=O)c2cc(CNCCO)n(C)n2)cccc1-c1ccccc1 [Example 7, 5-{[(2-hydroxyethyl)amino]methyl}-1-methyl-N-(2-methylbiphenyl-3-yl)-1H-pyrazole-3-carboxamide]
≤ 100	Cn1nc(C(=O)Nc2cccc(-c3ccc4c(c3)OCCO4)c2C#N)cc1CNCCO [Example 10, N-[2-cyano-3-(2,3-dihydro-1,4-benzodioxin-6-yl)phenyl]-5-{[1(2-hydroxyethyl)amino]methyl}-1-methyl-1H-pyrazole-3-carboxamide]
≤ 100	Cc1nc(C(=O)Nc2cccc(-c3ccccc3)c2C)sc1CNCCO [Example 9, 5-{[(2-hydroxyethyl)amino]methyl}-4-methyl-N-(2-methylbiphenyl-3-yl)-1,3-thiazole-2-carboxamide]
≤ 100	Cc1c(NC(=O)c2cc(CN3CC[C@@H](O)C3)n(C)n2)cccc1-c1cccc(NC(=O)c2ncc(CN3CC[C@@H](O)C3)s2)c1C [Example 19, 5-(((R)-3-hydroxypyrrolidin-1-yl)methyl)-N-(3′-(5-(((R)-3-hydroxypyrrolidin-1-yl)methyl)-1-methyl-1H-pyrazole-3-carboxamido)-2,2′-dimethyl-[1,1′-biphenyl]-3-yl)thiazole-2-carboxamide]
≤ 100	Cc1c(COc2cc(OCc3cncc(C#N)c3)c(CN3CCCC[C@H]3C(=O)O)cc2Cl)cccc1-c1cccc(NC(=O)c2ncc(CN3CC[C@@H](O)C3)s2)c1C [Example 18, (S)-1-(5-chloro-2-((5-cyanopyridin-3-yl)methoxy)-4-((3′-(5-(((R)-3-hydroxypyrrolidin-1-yl)methyl)thiazole-2-carboxamido)-2,2′-dimethyl-[1,1′-biphenyl]-3-yl)methoxy)benzyl)piperidine-2-carboxylic acid]
